Laboratory results: patent US20240197728A1, “METHODS AND PHARMACEUTICAL COMPOSITIONS FOR TREATING REFRACTORY EPILEPSY” (INSERM (INSTITUT NATIONAL DE LA SANTÉ ET DE LA RECHERCHE …, priority 2021, published 2024)

What was measured:
NKCC1 = target: T1, NKCC1 (Homo sapiens, UniProt P55011); conditions: NEMO trial, neonatal seizures; cited from earlier work
T1 sequence (P55011 1-1212): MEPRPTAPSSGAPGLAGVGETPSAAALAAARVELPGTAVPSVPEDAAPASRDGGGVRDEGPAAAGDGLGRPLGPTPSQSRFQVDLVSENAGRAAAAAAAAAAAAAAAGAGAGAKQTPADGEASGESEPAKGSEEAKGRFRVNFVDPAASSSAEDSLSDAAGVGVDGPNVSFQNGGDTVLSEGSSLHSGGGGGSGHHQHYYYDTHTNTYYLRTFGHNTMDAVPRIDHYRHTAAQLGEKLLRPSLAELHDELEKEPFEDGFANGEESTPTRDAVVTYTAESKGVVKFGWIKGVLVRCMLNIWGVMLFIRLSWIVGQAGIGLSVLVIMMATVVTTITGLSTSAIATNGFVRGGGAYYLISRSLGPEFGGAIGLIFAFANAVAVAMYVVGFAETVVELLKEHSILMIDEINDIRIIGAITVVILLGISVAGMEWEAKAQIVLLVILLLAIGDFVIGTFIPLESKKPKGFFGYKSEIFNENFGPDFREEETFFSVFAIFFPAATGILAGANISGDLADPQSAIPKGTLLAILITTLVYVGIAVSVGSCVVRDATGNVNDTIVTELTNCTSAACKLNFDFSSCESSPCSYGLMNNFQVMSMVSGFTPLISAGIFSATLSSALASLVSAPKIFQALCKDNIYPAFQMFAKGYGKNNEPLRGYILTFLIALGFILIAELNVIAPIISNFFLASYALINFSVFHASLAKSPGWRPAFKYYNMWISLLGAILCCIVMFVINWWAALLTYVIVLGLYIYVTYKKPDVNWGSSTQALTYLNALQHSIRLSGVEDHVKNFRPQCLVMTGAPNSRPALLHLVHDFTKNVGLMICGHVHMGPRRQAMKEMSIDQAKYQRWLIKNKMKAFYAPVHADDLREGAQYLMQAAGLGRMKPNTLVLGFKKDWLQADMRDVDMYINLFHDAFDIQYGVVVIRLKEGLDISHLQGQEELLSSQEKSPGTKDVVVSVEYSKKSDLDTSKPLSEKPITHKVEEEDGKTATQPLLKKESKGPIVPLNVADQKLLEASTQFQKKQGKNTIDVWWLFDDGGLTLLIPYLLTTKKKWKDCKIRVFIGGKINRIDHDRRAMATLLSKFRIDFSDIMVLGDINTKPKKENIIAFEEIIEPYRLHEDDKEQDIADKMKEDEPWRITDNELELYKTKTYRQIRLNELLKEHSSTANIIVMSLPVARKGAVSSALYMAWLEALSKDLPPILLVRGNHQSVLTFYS

[1] = tested on: spontaneous interictal-like discharges (IIDs) in slices from mTLE patients; assay: Multielectrode array recording of postoperative hippocampal-subicular slices from mTLE patients; assay type: cell-based, human; conditions: 10 μM bumetanide, >10 min application
Experimental: (§1) For all experiments on hippocampal cultures, neurons were pre-incubated for 2 hours with either DMSO, PCPZ or CLP257 in a CO2 incubator set at 37° C. Drugs were added directly to the culture medium. For electrophysiology experiments, neurons were also recorded in presence of these drugs in the bath. For biochemistry experiments on rat hippocampo-cortical slices, slices were incubated with either DMSO (vehicle), CLP257, PCPZ, WNK463 or sodium orthovanadate for 2 hours in interface chambers set at 37° C. For human tissue experiments, slices were pre-incubated with either DMSO, CLP257 or PCPZ for 2 hours in interface chambers set at 37° C. and then also recorded in presence of these compounds.
Patients or their legal guardians gave informed consent to participate in the study. Patients ([…], 3 males, 4 female, age range: 16-54 years) diagnosed with mesial temporal lobe epilepsy with hippocampal sclerosis underwent multimodal preoperative neurological, neurophyschological and psychiatric evaluations as well as video-electroencephalographic recording, magnetic resonance imaging and fluorodeooxyglugose positron emission tomography. Cortectomies were performed at Sainte-Anne Hospital by neurosurgeons B. Devaux and B. Turak and at Pitié-Salpêtriére Hospital by neurosurgeons S. Clemenceau and B. Mathon. Cortical specimens collected in the operating room were immediately transported in ice-cold (0-4° C.), oxygenated solution (O2/CO2 95/5%), containing (in mM): N-methyl-d-glucamine 93, KCl 2.5, NaH2PO4 1.2, NaHCO3 30, HEPES 20, D-glucose 20, ascorbic acid 5, sodium pyruvate 3, MgSO4 10 and CaCl2 0.5 (300-310 mOsm, pH7.4) and transported within 15 minutes to the laboratory. Transverse hippocampal-subicular slices (400 m thick) were prepared in the same solution using a vibratome (HM650V, Microm). They were maintained for 20-30 minutes at 37° C. and then at room temperature in an interface chamber containing artificial cerebrospinal fluid (ACSF) composed of (in mM): D-glucose 10, KCl 3.5, NaHOC3 26, NaH2PO4 1.25, NaCl 126, CaCl2 1.6 and MgCl2 1.2 (290 mOsm), equilibrated with 5% CO2 in 95% 02.
Multielectrode array recordings were performed using a MEA2100 station (Multi Channel Systems) equipped with a 120-microelectrode array chamber (custom 12×10 layout, 30 μm TiN electrodes spaced 1 mm vertical and 1.5 mm horizontal). Slices were maintained in the recording chamber using a home-made platinum-nylon harp and superfused with pre-warmed (37° C.) oxygenated ACSF at a rate of 6 ml/min. Slices were imaged using a video-microscope table (MEA-VMT1, Multi Channel Systems) in order to register the location of electrodes with respect to the slice. Extracellular signals were acquired at a sampling rate of 10 kHz using Multi Channel Experimenter (Multi Channel Systems) and analyzed offline using homemade software (Matlab, The Mathworks).

SPAK = assay: Immunoblot of SPAK phosphorylation and expression in hippocampo-cortical slices; assay type: cell-based, rat; conditions: 10 μM WNK463, 2 h; vs DMSO
Experimental: as §1
(§2) 8-weeks old Sprague Dawley male rats were anesthetized by intraperitoneal ketamine/xylazine injection (120/10 mg/kg) and perfused transcardially with ice-cold (0-4° C.), oxygenated solution (O2/CO2 95/5%), containing (in mM): N-methyl-d-glucamine 93, KCl 2.5, NaH2PO4 1.2, NaHCO330, HEPES 20, D-glucose 20, ascorbic acid 5, sodium pyruvate 3, MgSO4 10 and CaCl2) 0.5 (300-310 mOsm, pH7.4). Brains were removed and transverse hippocampo-cortical slices (400 m thick) were prepared in the same solution using a vibratome (HM650V, Microm). Slices were then incubated for 2-hours with DMSO, the KCC2 enhancers (CLP257, PCPZ, WNK43) or sodium orthovanadate in an interface chamber containing artificial cerebrospinal fluid (ACSF) composed of (in mM): D-glucose 10, KCl 3.5, NaHOC3 26, NaH2PO4 1.25, NaCl 126, CaCl2) 1.6 and MgCl2 1.2 (290 mOsm), equilibrated with 5% CO2 in 95% 02. After the treatments, slices were washed with cold PBS, instantaneously frozen with liquid nitrogen and stored at −80° C.
(§3) Slices were mechanically lysed on ice, using a 2 mL Dounce, in a buffer containing (in mM): Tris/HCl, pH 7.5 50, EGTA 1, EDTA 1, sodium orthovanadate 1, sodium-B-glycerophosphate 10, sodium fluoride 50, sodium pyrophosphate 5, sucrose 270, benzamidine 1, phenylmethylsulfonyl fluoride 2, Triton […], (v/v) 2-mercaptoethanol 0.1% and protease inhibitors (Roche). After complete homogenization, samples were centrifuged (16,000×g at 4° C. for 10 min) and the supernatant was collected. Protein quantification was done using Pierce BCA Protein Assay kit (Thermo Scientific) with BSA as standard.
Samples were subjected to electrophoresis on polyacrylamide gradient gels (4-12% bis-tris gels) and transferred to nitrocellulose membranes. Membranes were rinsed with TBS-tween solution (TBST; Invitrogen) and blocked with 5% (w/v) skim milk. […] Fluorescence was detected and the relative intensities of immunoblot bands were determined using Odyssey infrared imaging system (LI-COR Bioscience). […]

KCC2 = assay: Immunoprecipitation/immunoblot of KCC2 phosphorylation and expression in hippocampo-cortical slices; assay type: cell-based, rat
Experimental: as §1, §2, §3
The following phosphorylation site-specific antibodies: anti-KCC3A phospho Thr1048 (0.35 mg/ml, sheep, [S0961C] 1st bleed, Dundee), anti-KCC3A phospho Thr 991 (0.26 mg/ml, sheep, [S959C] 1st bleed, Dundee) were first incubated for 30 min at 4° C. with the corresponding non-phosphorylated peptide (10 mg/ml, Dundee).
Phospho-antibodies or anti-KCC2 antibodies (07-432; Millipore) were then coupled with protein-G-Sepharose (4 Fast Flow; Sigma-Aldrich) at a ratio of […] of antibody per 100 μl of beads, for 2 h at 4° C. without agitation. 1.5 mg of clarified cell lysate was incubated with the antibody-coupled bead suspension, overnight at 4° C. under gentle agitation. The supernatant was collected after centrifugation and beads were washed twice with NaCl solution (0.25M NaCl in 1×PBS) and twice with PBS alone. Bound proteins were eluted with 2×LDS sample buffer (Invitrogen) containing 0.5% (v/v) 2-mercaptoethanol and denaturated at 75° C. for 20 min (IP with phospho-antibodies) or 37° C. for 1 h (IP with anti-KCC2 antibodies) before centrifugation (13,000×g at 4° C. for 15-20 min).
Samples were subjected to electrophoresis on polyacrylamide gradient gels (4-12% bis-tris gels) and transferred to nitrocellulose membranes. Membranes were rinsed with TBS-tween solution (TBST; Invitrogen) and blocked with 5% (w/v) skim milk. The membranes were then immunoblotted in 5% (w/v) skim milk in TBST with a primary antibody against KCC2 (rabbit, 07-432; Millipore; 1:1000), or phosphotyrosine (mouse, clone 4G10, Millipore, 1:1000), and a mouse primary antibody against neuron-specific beta-III tubulin overnight at 4° C. (clone 2G10; T8578; Sigma-Aldrich; 1:1000). […]

OSR1 = assay: Immunoblot of OSR1 phosphorylation and expression in hippocampo-cortical slices; assay type: cell-based, rat; conditions: 10 μM WNK463, 2 h; vs DMSO
Experimental: as §1, §2, §3
Samples were subjected to electrophoresis on polyacrylamide gradient gels (4-12% bis-tris gels) and transferred to nitrocellulose membranes. Membranes were rinsed with TBS-tween solution (TBST; Invitrogen) and blocked with 5% (w/v) skim milk. The membranes were then immunoblotted in 5% (w/v) skim milk in TBST with a primary antibody against KCC2 (rabbit, 07-432; Millipore; 1:1000), or phosphotyrosine (mouse, clone 4G10, Millipore, 1:1000), and a mouse primary antibody against neuron-specific beta-III tubulin overnight at 4° C. (clone 2G10; T8578; Sigma-Aldrich; 1:1000). They were then washed three times with distillated water, three times with TBST-milk solution and incubated for one hour at RT with goat secondary antibodies anti-rabbit IRDye 800 (1:3000; LI-COR), goat anti-mouse IRDye 700 (1:3000; LI-COR) or donkey anti-sheep DyLight 800 (1:3000; Rockland). Membranes were then washed again with TBST three times and one time with TBS. Fluorescence was detected and the relative intensities of immunoblot bands were determined using Odyssey infrared imaging system (LI-COR Bioscience). […]

## CCCCNc1cc(C(=O)O)cc(S(N)(=O)=O)c1Oc1ccccc1 [bumetanide]
NKCC1
  hearing loss in surviving patients: 3/11
[1]
  slices in which the amplitude of IIDs was reduced or IIDs abolished: 3 of 4

## CC(C)(C)NC(=O)c1cncn1C1CCN(c2ccc(-c3nnc(C(F)(F)F)o3)cn2)CC1 [WNK463]
SPAK
  change of SPAK phosphorylation (S327): −84.10±4.57%
KCC2; 10 μM WNK463, 2 h, slices, vs DMSO
  change of total KCC2 expression: −7.64±13.00%
KCC2; 10 μM WNK463, 2 h, vs DMSO
  change of KCC2 phosphorylation at S940: −14.40±4.67%
  change of KCC2 phosphorylation at T906: −13.70±12.5%
  change of KCC2 phosphorylation at T1007: −78.702±3.27%
OSR1
  change of OSR1 phosphorylation (S325): −81.00±5.56%

## [Na+].[Na+].[Na+].[O]=[V]([O-])([O-])[O-] [sodium orthovanadate]
KCC2; sodium orthovanadate 200 μM in H2O (FIG. 4 legend), 2 h
  change of tyrosine phosphorylation of KCC2: +89.10±45.40%
